Like-named read-outs stand apart in the source and are kept apart here.
Columns and labels:
Assay type in all cases: cell-based
[1] = tested on: HCV subtype 1B replicon in Huh-7 cells; assay: HCV sub-genomic reporter replicon assay, subtype 1B; details: Hepatitis C virus
Method: (§1) Compounds were also tested in Huh-7 cells harboring sub-genomic reporter replicons derived from HCV subtypes 1B and 2A (ref.: Stuyver, L. J.; Whitaker, T.; McBrayer, T. R.; Hernandez-Santiago, B. I.; Lostia, S.; Tharnish, P. M.; Ramesh, M.; Chu, C. K.; Jordan, R.; Shi, J. X.; Rachakonda, S.; Watanabe, K. A.; Otto, M. J.; Schinazi, R. F. Antimicrob. Agents Chemother. 2003, 47, 244-254).

HeLa S3 = assay: XTT cytotoxicity assay, HeLa S3; details: Homo sapiens, read-out: XTT, IC50 HeLa S3
Outline: (§2)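 Cells seeded at 10,000 per well, compounds added after 24 h and incubated 72 h, then XTT (with N-methyl dibenzopyrazine methyl sulfate) for 2 h; absorbance at 495 nm. IC50 by non-linear regression.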

K562 = assay: Cytostatic/cytotoxic MTT assay, K562; details: Homo sapiens, read-out: MTT, IC50 K562
Outline: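 Following 24 h stabilisation, wells received compound as four-fold serial dilutions (duplicates) and were incubated 72 h. MTT conversion (1-4 h) was quantified at 540 nm; the concentration giving 50% growth inhibition was reported.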

HL60 = assay: XTT cytotoxicity assay, HL-60; details: Homo sapiens, read-out: XTT, IC50 HL60
Outline: as §2

[2] = tested on: HCV subtype 2A replicon in Huh-7 cells; assay: HCV sub-genomic reporter replicon assay, subtype 2A; details: Hepatitis C virus
Method: as §1

HCT116p53-/- = assay: Cytostatic/cytotoxic MTT assay, HCT116p53-/-; details: Homo sapiens, read-out: MTT, IC50 HCT116 p53-/-
Outline: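 Human cancer lines, including daunorubicin-resistant CEM-DNR (mrp-1/mdr-1 overexpressing) and paclitaxel-resistant K562-TAX (mdr-1), seeded 25,000-30,000 cells/well, pre-incubated 24 h, then treated in duplicate with four-fold dilutions for 72 h at 37° C, 5% CO2. MTT read-out at 540 nm; IC50 from dose-response curves.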

[3] = Huh-7 cells, HCV subtype 1B replicon, read-out: Replicon 1B EC50
[4] = Huh-7 cells, HCV subtype 2A replicon, read-out: Replicon 2A EC50

| Compound | EC50 ([1]; Huh-7, read-out: Replicon 1B EC50) | IC50 (HeLa S3; HeLa S3, 72 h) | IC50 (K562; K562, 72 h) | IC50 (HL60; HL-60, 72 h) | EC50 ([2]; Huh-7, read-out: Replicon 2A EC50) | IC50 (HCT116p53-/-; HCT-116, 72 h) | EC50 [1, 3] | IC50 (HeLa S3; HeLa S3, 72 h incubation) | IC50 (K562; K562, 72 h incubation) | IC50 (HL60; HL-60, 72 h incubation) | EC50 [2, 4] | IC50 (HCT116p53-/-; HCT-116, 72 h incubation) |
| --- | --- | --- | --- | --- | --- | --- | --- | --- | --- | --- | --- | --- |
| CSc1ncnc2c1ccn2[C@@H]1O[C@H](CO)[C@@H](O)[C@H]1O [RC2, reference compound] | 29.9 µM | 11.9 µM | > 20 µM | 7.19 µM | > 44 µM | > 20 µM | – | – | – | – | – | – |
| CNc1ncnc2c1c(-c1ccsc1)cn2[C@@H]1O[C@H](CO)[C@@H](O)[C@H]1O [Compound 3d, 4-Methylamino-7-(β-D-ribofuranosyl)-5-(thiophen-3-yl)-7H-pyrrolo[2,3-d]pyrimidine] | – | – | – | – | – | – | > 44 µM | > 20 µM | > 20 µM | > 20 µM | > 44 µM | > 20 µM |
| C#Cc1cn([C@@H]2O[C@H](CO)[C@@H](O)[C@H]2O)c2ncnc(NC)c12 [Compound 3g, 5-Ethynyl-4-methylamino-7-(β-D-ribofuranosyl)-7H-pyrrolo[2,3-d]pyrimidine] | – | – | – | – | – | – | 0.35 µM | > 20 µM | > 20 µM | 9.06 µM | > 44 µM | > 20 µM |
| COc1ncnc2c1c(I)cn2[C@@H]1O[C@H](CO)[C@@H](O)[C@H]1O [Compound 1h, 5-iodo-4-methoxy-7-(β-D-ribofuranosyl)-7H-pyrrolo[2,3-d]pyrimidine, reference compound] | – | – | – | – | – | – | > 44 µM | 14.3 µM | > 20 µM | 2.3 µM | > 44 µM | > 20 µM |
| C#Cc1cn([C@@H]2O[C@H](CO)[C@@H](O)[C@H]2O)c2ncnc(N(C)C)c12 [Compound 4g, 4-Dimethylamino-5-ethynyl-7-(β-D-ribofuranosyl)-7H-pyrrolo[2,3-d]pyrimidine] | – | – | – | – | – | – | 0.07 µM | 0.81 µM | 0.11 µM | 0.29 µM | 0.1 µM | 0.29 µM |
| C#Cc1cn([C@@H]2O[C@H](CO)[C@@H](O)[C@H]2O)c2ncnc(SC)c12 [Compound 2g, 5-Ethynyl-4-methylsulfanyl-7-(β-D-ribofuranosyl)-7H-pyrrolo[2,3-d]pyrimidine] | – | – | – | – | – | – | 0.21 µM | 0.11 µM | 0.03 µM | 0.05 µM | > 44 µM | 0.09 µM |
| CSc1ncnc2c1c(I)cn2[C@@H]1O[C@H](CO)[C@@H](O)[C@H]1O [Compound 2h, 5-Iodo-4-methylsulfanyl-7-(β-D-ribofuranosyl)-7H-pyrrolo[2,3-d]pyrimidine] | – | – | – | – | – | – | 19.2 µM | 0.25 µM | 10.5 µM | 0.05 µM | > 44 µM | > 20 µM |
| CSc1ncnc2c1c(-c1cc3ccccc3o1)cn2[C@@H]1O[C@H](CO)[C@@H](O)[C@H]1O [Compound 2f, 5-(Benzofuran-2-yl)-4-methylsulfanyl-7-(β-D-ribofuranosyl)-7H-pyrrolo[2,3-d]pyrimidine] | – | – | – | – | – | – | 8.03 µM | 1.93 µM | 17.2 µM | 1.21 µM | 29.6 µM | > 20 µM |
| Cc1ncnc2c1c(-c1ccoc1)cn2[C@@H]1O[C@H](CO)[C@@H](O)[C@H]1O [Compound 5b, 5-(Furan-3-yl)-4-methyl-7-(β-D-ribofuranosyl)-7H-pyrrolo[2,3-d]pyrimidine] | – | – | – | – | – | – | 4.43 µM | > 20 µM | > 20 µM | > 15 µM | > 44 µM | > 20 µM |
| Cc1ncnc2c1c(-c1ccsc1)cn2[C@@H]1O[C@H](CO)[C@@H](O)[C@H]1O [Compound 5d, 4-Methyl-7-(β-D-ribofuranosyl)-5-(thiophen-3-yl)-7H-pyrrolo[2,3-d]pyrimidine] | – | – | – | – | – | – | 4.47 µM | 14.3 µM | 0.32 µM | 0.35 µM | > 44 µM | 1.43 µM |
| CNc1ncnc2c1c(-c1cccs1)cn2[C@@H]1O[C@H](CO)[C@@H](O)[C@H]1O [Compound 3c, 4-Methylamino-7-(β-D-ribofuranosyl)-5-(thiophen-2-yl)-7H-pyrrolo[2,3-d]pyrimidine] | – | – | – | – | – | – | > 44 µM | > 20 µM | > 20 µM | > 20 µM | > 44 µM | > 20 µM |
